Entries after “also recorded” stand apart in the source; their conditions may differ.
Experiments:
LS180 cells [1] = experiment: Inhibition of resveratrol metabolism (disappearance) in LS180 cells; type: cell-based, human; details: for activity at 100 µM: Homo sapiens, read-out: Extent of RES Disappearance (as % of control); for inhibition of resveratrol metabolism (in words): 4 hours
[2] = tested on: human LS180 intestinal cells; experiment: Inhibition of phenylephrine (PE) metabolism (PE disappearance) in LS180 cells; type: cell-based; details: for activity at 100 µM: Homo sapiens; for effect on PE disappearance / PE metabolism (in words): inhibitor 100 μM
Description: The inhibitors which can be used in the practice of the invention are wide ranging. […] The LS180 model provides an inexpensive method to imitate the human intestine, with regards to PE metabolism. […] For the LS180 experiments, LS180 cells are seeded at the concentration of 1.9×10^5 cells/ml in 12-well plate. […] After incubation, medium is removed and stored at −80° C. until analysis. The metabolic reactions are quenched by placing 12-well plate on ice and quickly rinsing each well. The cell extraction of metabolites is carried out with 1 ml 2% acetic acid solution in methanol. Cells are scraped and collected in centrifuge tubes. The suspension is mixed for 2-3 min and centrifuged at 18,000 rcf for 5 min. Supernatants (800 μl) are collected. After scraping, each well is washed twice as above. The washing solution is collected with the supernatant and dried under reduced pressure. The residue is re-suspended in 35 μl water and analyzed by HPLC. […] The data are processed with one-way ANOVA followed by Dunnett's post test; * indicates p<0.05.
Phenolic compounds were selected from FDA's “GRAS” list, approved food additives, or dietary supplements. LS180 cells were used as a model to test the effect of these phenolic compounds on the pre-systemic sulfation of PE. The cells were incubated in 0.5 ml medium with PE (50 μM)±inhibitor (100 μM) overnight. Extracellular buffer was collected and cells were extracted with methanol. PE was determined by reversed-phase HPLC with fluorescence detection. The formation of PE-sulfate was analyzed by LC-MS/MS. Results (n=3 per group) were analyzed by one-way ANOVA with Dunnett's post-test (p<0.05; Prism 5).

LS180 cells [3] = experiment: Inhibition of 2-methoxyestradiol metabolism (disappearance) in LS180 cells; type: cell-based, human; details: for activity at 100 µM: Homo sapiens, LS180, 1 h
[4] = Biopharmaceutical Classification System (BCS) classification; details: high permeability, high aqueous solubility
Description: Interpreting the data published by Hengstmann, the mass balance of total radioactivity excreted into urine following an oral dose was 92% of what was recovered following an intravenous dose, so that phenylephrine would therefore be considered a “high permeability” compound. (Hengstmann and Goronzy, 1982; Amidon et al., 1995) Combining this with its high aqueous solubility, phenylephrine would be classified as a Biopharmaceutical Classification System (BCS) class 1 compound. […] (Amidon et al., 1995; Wu and Benet, 2005) Therefore, to improve the oral bioavailability of PE, a metabolism-targeted approach would be most useful.

[5] = cited from earlier work
[6] = Fenaroli, 2010; cited from earlier work
[7] = tested on: human LS180 intestinal cells; experiment: Inhibition of PE sulfate formation in LS180 cells; type: cell-based; details: PE 50 μM ± inhibitor 100 μM, overnight, LC-MS/MS, read-out: PE-sulfate formation inhibited to (control=100%)
Description: The inhibitors which can be used in the practice of the invention are wide ranging. Tables 1 and 2 show results with a number of different compounds which can function as inhibitors of SULT, MAO, CYP, COMT or UGT enzymes, or which otherwise may be used to increase the bioavailability of the exemplary bioactive phenylephrine. […] In Tables 1 and 2, human LS180 intestinal cells were used for screening the inhibition of PE metabolism. For the experiment which produced the results in Table 1, the concentration of PE was […]; the concentration of vitamin C (where present) was 1 mM; the total concentration of other inhibitors was 100 μM. Cells were incubated at 37° C. for 14 to 17.5 hours, as indicated. […] The residue is re-suspended in 35 μl water and analyzed by HPLC. All the samples are analyzed for PE by HPLC with a phenyl column (150×3.2 mm, 5 μm, 55° C.) at the flow rate of […] (20% methanol and 80% (aqueous 1% acetic acid)) and detected by fluorescence (excitation 270 nm, emission 305 nm). […]
Phenolic compounds were selected from FDA's “GRAS” list, approved food additives, or dietary supplements. […] PE was determined by reversed-phase HPLC with fluorescence detection. The formation of PE-sulfate was analyzed by LC-MS/MS. Results (n=3 per group) were analyzed by one-way ANOVA with Dunnett's post-test (p<0.05; Prism 5).

[8] = resveratrol 25 μM, inhibitor 100 μM, LS180 cells, incubation 4 hr
[9] = resveratrol 25 μM, inhibitor 100 μM, LS180 cells
[10] = PE 50 μM, inhibitors total 100 μM (ascorbic acid 1 mM), LS180 cells, incubation 14 hr, read-out: Extent of PE Disappearance (as % of control)
[11] = PE 50 μM, LS180 cells, overnight
[12] = 2-ME 10 μM, inhibitor 100 μM, incubation time 1 hr (table)
[13] = 2-ME 10 μM, inhibitor 100 μM, incubation time 1 hr (table), read-out: Extent of 2-ME Disappearance (as % of control)
[14] = PE 50 μM ± inhibitor 100 μM, LS180 cells, overnight, n=3, control=503±127 pmol/hr, read-out: extent of disappearance of PE (mean±SD, as % of control)
[15] = PE 50 μM, inhibitors total 100 μM (ascorbic acid 1 mM), LS180 cells, incubation 17 hr, read-out: Extent of PE Disappearance (as % of control)
[16] = PE 50 μM, inhibitors total 100 μM, LS180 cells, incubation 17.5 hr, read-out: Extent of PE Disappearance (as % of control)
[17] = PE 50 μM, inhibitors total 100 μM, LS180 cells, incubation 19 hr, read-out: Extent of PE Disappearance (as % of control)

## CCCOC(=O)c1cc(O)c(O)c(O)c1 [propyl gallate]
LS180 cells [1]; [8]
  activity at 100 µM: 51.2%
LS180 cells [1]; [9]
  inhibition of resveratrol metabolism (in words): significant inhibition
[2]; [10]
  activity at 100 µM: 114%
[2]; [11]
  effect on PE disappearance / PE metabolism (in words): no significant effect on PE disappearance
LS180 cells [3]; 2-ME 10 μM, inhibitor 100 μM
  inhibition of 2ME metabolism (in words): Significant inhibition
LS180 cells [3]; [12]
  Extent of 2-ME Disappearance (as % of control): 50.4%
LS180 cells [3]; [13]
  activity at 100 µM: 42.8%

## COc1cc(CCC(C)=O)ccc1O [zingerone]
LS180 cells [1]; [8]
  activity at 100 µM: 83.7%
[2]; [14]
  activity at 100 µM: 52 ± 25%
[2]; [15]
  activity at 100 µM: 52.4%

## C[C@@H]1O[C@@H](O[C@H]2[C@H](Oc3cc(O)c4c(c3)O[C@H](c3ccc(O)cc3)CC4=O)O[C@H](CO)[C@@H](O)[C@@H]2O)[C@H](O)[C@H](O)[C@H]1O [naringin]
[2]; [16]
  activity at 100 µM: 75.7%

## O=CC=Cc1ccccc1 [cinnamaldehyde]
LS180 cells [3]; [12]
  Extent of 2-ME Disappearance (as % of control): 93.9%
LS180 cells [3]; [13]
  activity at 100 µM: 87.6%

## CCOc1cc(C=O)ccc1O [ethylvanillin]
LS180 cells [1]; [8]
  activity at 100 µM: 8.1%
LS180 cells [1]; [9]
  inhibition of resveratrol metabolism (in words): greatest extent of inhibition
[2]; [15]
  activity at 100 µM: 76.5%

## O=C(O)/C=C/c1ccc(O)c(O)c1 [caffeic acid]
LS180 cells [1]; [8]
  activity at 100 µM: 91.1%
LS180 cells [3]; [13]
  activity at 100 µM: 93.3%

## COc1cc(C(=O)O)ccc1O [vanillic acid]
LS180 cells [1]; [8]
  activity at 100 µM: 103%
LS180 cells [3]; [13]
  activity at 100 µM: 99.1%

## O=c1c(O)c(-c2ccc(O)c(O)c2)oc2cc(O)cc(O)c12 [quercetin]
[2]; [16]
  activity at 100 µM: 48.7%

## COc1cc(/C=C/c2ccc(O)cc2)cc(OC)c1 [pterostilbene]
[2]; [14]
  activity at 100 µM: 71 ± 7%
[2]; [17]
  activity at 100 µM: 70.6%

## O=C(O)c1cc(O)c(O)c(O)c1 [gallic acid]
LS180 cells [3]; [13]
  activity at 100 µM: 102%

## O=C(/C=C/C=C/c1ccc2c(c1)OCO2)N1CCCCC1 [piperine]
LS180 cells [1]; [8]
  activity at 100 µM: 26.4%

## COC(=O)c1ccc(O)cc1 [methylparaben]
LS180 cells [1]; [8]
  activity at 100 µM: 0.4%
LS180 cells [1]; [9]
  inhibition of resveratrol metabolism (in words): greatest extent of inhibition
[2]; [15]
  activity at 100 µM: 75.9%

## CNC[C@H](O)c1cccc(O)c1 [phenylephrine]
[4]
  Biopharmaceutical Classification System (BCS) class: class 1
[5]; mass balance, oral vs intravenous, Hengstmann data
  total radioactivity excreted into urine following an oral dose, relative to intravenous dose: 92%
[5]; oral
  oral bioavailability: < 38%

## COc1cc(C=O)ccc1O [vanillin]
LS180 cells [1]; [8]
  activity at 100 µM: 44.8%
LS180 cells [1]; [9]
  inhibition of resveratrol metabolism (in words): significant inhibition
[2]; [10]
  activity at 100 µM: 90.2%
[2]; [11]
  effect on PE disappearance / PE metabolism (in words): failed to inhibit PE metabolism alone; also recorded: no significant effect on PE disappearance
[6]
  acceptable daily intake: 10 mg/kg/day
LS180 cells [3]; 2-ME 10 μM, inhibitor 100 μM
  inhibition of 2ME metabolism (in words): Significant inhibition
LS180 cells [3]; [12]
  Extent of 2-ME Disappearance (as % of control): 39.4%
LS180 cells [3]; [13]
  activity at 100 µM: 51.2%

## COc1cc(/C=C/C(=O)CC(=O)/C=C/c2ccc(O)c(OC)c2)ccc1O [curcumin]
[2]; [14]
  activity at 100 µM: 24 ± 24%
[2]; [15]
  activity at 100 µM: 24.5%

## COc1ccccc1O [guaiacol]
[2]; [14]
  activity at 100 µM: 51 ± 14%
[2]; PE 50 μM, inhibitors total 100 μM, LS180 cells, incubation 18.5 hr, read-out: Extent of PE Disappearance (as % of control)
  activity at 100 µM: 51.3%
[7]
  activity at 100 µM: 33 ± 7%

## COc1cc(/C=C/C(=O)O)ccc1O [ferulic acid]
LS180 cells [1]; [8]
  activity at 100 µM: 100%
LS180 cells [3]; [13]
  activity at 100 µM: 102%

## COc1cc(/C=C/C(=O)O)cc(OC)c1O [sinapic acid]
LS180 cells [1]; [8]
  activity at 100 µM: 86.1%
LS180 cells [3]; [13]
  activity at 100 µM: 88.1%

## CC=Cc1ccc(O)c(OC)c1 [isoeugenol]
[2]; [14]
  activity at 100 µM: 74 ± 8%
[2]; [17]
  activity at 100 µM: 73.9%

## Oc1ccc(C=Cc2cc(O)cc(O)c2)cc1 [resveratrol]
[2]; [14]
  activity at 100 µM: 14 ± 48%
[2]; [16]
  activity at 100 µM: 14.2%

## C=CCc1ccc(O)c(OC)c1 [eugenol]
LS180 cells [1]; LS180, 4 h
  activity at 100 µM: 38.3%
LS180 cells [1]; [9]
  inhibition of resveratrol metabolism (in words): significant inhibition
[2]; LS180, 17.5 h, read-out: Extent of PE Disappearance (as % of control)
  activity at 100 µM: 133%
[2]; [11]
  effect on PE disappearance / PE metabolism (in words): failed to inhibit PE metabolism alone; also recorded: no significant effect on PE disappearance
LS180 cells [3]; 2-ME 10 μM, inhibitor 100 μM
  inhibition of 2ME metabolism (in words): Significant inhibition
LS180 cells [3]; [12]
  Extent of 2-ME Disappearance (as % of control): 33.9%
LS180 cells [3]; read-out: Extent of 2-ME Disappearance (as % of control), 2-ME 10 μM, inhibitor 100 μM, incubation time 1 hr (table)
  activity at 100 µM: 21.2%

## O=C(O)C=Cc1ccccc1 [cinnamic acid]
LS180 cells [1]; [8]
  activity at 100 µM: 16.3%
LS180 cells [1]; [9]
  inhibition of resveratrol metabolism (in words): significant inhibition

## CCCOC(=O)c1ccc(O)cc1 [propylparaben]
LS180 cells [1]; [8]
  activity at 100 µM: 57.8%
LS180 cells [1]; [9]
  inhibition of resveratrol metabolism (in words): significant inhibition
[2]; [10]
  activity at 100 µM: 53.8%
LS180 cells [3]; 2-ME 10 μM, inhibitor 100 μM
  inhibition of 2ME metabolism (in words): Significant inhibition
LS180 cells [3]; [12]
  Extent of 2-ME Disappearance (as % of control): 57.7%
LS180 cells [3]; [13]
  activity at 100 µM: 51.7%
